From patent US20130261045A1, “GREEN TEA POLYPHENOL ALPHA SECRETASE ENHANCERS AND METHODS OF USE” (UNIVERSITY OF SOUTH FLORIDA, priority 2005, published 2013)
Peptide text beside a SMILES is read from it. * marks the point of attachment. Cbz = O=C(OCc1ccccc1)*

Key:
Format in all cases: cell-based, murine
APP cleavage processing = assay: Western blot/immunoprecipitation of APP cleavage (CTFs, sAPP-α, holo APP) in APP-transfected N2a cells; conditions: for α-CTF production: at the high dose; for α-CTF generation and α-CTF to β-CTF ratio: 80 μM; for effect on the action of EGCG on α-CTF cleavage: GC or C 80 μM with EGCG, FIG. 2F
Procedure: Cell cultured supernatants were collected and cell lysates were prepared from these cultured cells.
Cultured cells and mouse brain were lysed in ice-cold lysis buffer described above, and an aliquot corresponding to 50 μg of total protein was electrophoretically separated using 16.5% Tris-tricine gels. Electrophoresed proteins were then transferred to PVDF membranes (Bio-Rad), washed in dH2O, and blocked for 1 hour at ambient temperature in Tris-buffered saline (TBS; Bio-Rad) containing 5% (w/v) for non-fat dry milk. After blocking, membranes were hybridized for 1 hour at ambient temperature with various antibodies, including against the C- (369), N-terminus of APP (22C11), the N-terminus of Aβ (6E10), and ADAM10 and TACE (Calbiochem). Membranes were then washed 3× for 5 min each in dH2O and incubated for 1 hour at ambient temperature with the appropriate HRP-conjugated secondary antibody (1:1,000, Pierce Biotechnology, Inc. Rockford, Ill.). All antibodies were diluted in TBS containing 5% (w/v) of non-fat dry milk. Blots were developed using the luminal reagent (Pierce Biotechnology). Densitometric analysis was done using the Fluor-S Multimager™ with Quantity One™ software (Bio-Rad). Immunoprecipitation was performed for detection of sAPP-α, sAPP-β and Aβ by incubating 200 μg of total protein of each sample with 6E10 (1:100; Signet) or 22C11 (1:100; Roche, Basel, Switzerland) overnight with gentle rocking at 4° C., and 10 μL of 50% protein A-Sepharose beads were then added to the sample (1:10; Sigma) prior to gentle rocking for an additional 4 hours at 4° C. Following washes with 1× cell lysis buffer, samples were subjected to Western blot as described above. Antibodies used for Western blot included antibody 369 (1:1,000), anti-C-terminal APP antibody (1:500; Chemicon, Temecula, Calif.), BAM-10 (1:1,000; Sigma), 6E10 (1:1,000; Signet) or anti-Actin antibody (1:1,500; as an internal reference control; Roche). α-, β- and γ-secretase activities were quantified in cell lysates and mouse brain homogenates using available kits based on secretase-specific peptides conjugated to fluorogenic receptor molecules (R&D Systems, Minneapolis, Minn.).

Aβ generation = assay: Aβ ELISA, conditioned media of APP-transfected N2a cells (Example 1); conditions: co-treatment with EGCG 20 μM, GC or C 80 μM, 12 hours; SweAPP N2a cells
Procedure: Aβ1-40 and 1-42 peptides were analyzed in the conditioned media from SweAPP N2a cells (FIGS. 1A, 1C, 1D) and transgenic APPsw mouse-derived primary neuronal cells (FIG. 1B) by ELISA (n=3 for each condition).
TAPI-1, β and γ-secretase inhibitors were obtained from Calbiochem (San Diego, Calif.). Green tea extract (75% polyphenols) was obtained from the Vitamin Shoppe™ (North Bergen, N.J.).
Cultured cells were lysed in ice-cold-lysis buffer (20 mM Tris, pH 7.5, 150 mM NaCl, 1 mM EDTA, 1 mM EGTA, 1% v/v Triton X-100, 2.5 mM sodium pyropgosphate, 1 mM β-glycerolphosphate, 1 mM Na3VO4, 1 μg/mL leupeptin, 1 mM PMSF) as previously described (Tan et al., 2002). Mouse brains were isolated under sterile conditions on ice and placed in ice-cold lysis buffer. Brains were then sonicated on ice for approximately 3 min, allowed to stand for 15 min at 4° C., and centrifuged at 15,000 rpm for 15 min. Total Aβ1-42 species were detected by acid extraction of brain homogenates in 5 M guanidine buffer (ret), followed by a 1:10 dilution in lysis buffer. Soluble Aβ1-42 was directly detected in cultured cell lysates or brain homogenates prepared with lysis buffer described above by a 1:4 or 1:10 dilution, respectively. Aβ1-42 was quantified in these samples using the Aβ1-42 ELISA kit (BioSource, Camarillo, Calif.) in accordance with the manufacturer's instructions, except that standards included a 0.5 M guanidine buffer.
In order to examine the effects of green tea's components on APP cleavage processing, for a first step, N2a neuroblastoma cells overproducing Aβ were treated with each of the aforementioned components at a wide range of doses. In addition, doses of (+)-catechin hydrate (CH) and gallic acid monohydrate (GAM) were included in the first step.

α-secretase = α-secretase cleavage activity kit, lysates of APP-transfected N2a cells; conditions: TAPI-1 25 μM with EGCG 20 μM, 4 hours; FIGS. 3d and e
[1] = 0.5 μM to 1.5 μM, SweAPP N2a cells, data not shown

Molecule | α-CTF production (APP cleavage processing) | α-CTF generation and α-CTF to β-CTF ratio (APP cleavage processing) | effect on the action of EGCG on α-CTF cleavage (APP cleavage processing) | effect on the ability of EGCG to reduce Aβ production (Aβ generation) | also measured
Oc1cc(O)c2c(c1)O[C@@H](c1ccc(O)c(O)c1)[C@@H](O)C2 [(+) EC, (+)-epicatechin] | increases | – | – | – | –
Oc1cc(O)c2c(c1)O[C@H](c1ccc(O)c(O)c1)[C@H](O)C2 [(−) EC, (−)-epicatechin] | increases | – | – | – | –
Oc1cc(O)c2c(c1)O[C@H](c1cc(O)c(O)c(O)c1)[C@@H](O)C2 [GC, (−)-gallocatechin] | – | decreased | significantly opposes | markedly inhibits the ability of EGCG to reduce Aβ production | –
CC(C)C[C@H](CC(=O)NO)C(=O)N[C@@H](Cc1ccc2ccccc2c1)C(=O)N[C@@H](C)C(=O)NCCN [TAPI-1, reference compound] | – | – | – | – | effect on EGCG promotion of APP α-secretase cleavage (α-secretase): significantly attenuated
CC(C)C[C@@H](C=O)NC(=O)[C@H](CC(C)C)NC(=O)[C@@H](NC(=O)OCc1ccccc1)C(C)C [β-secretase inhibitor II, reference compound] (Cbz-Val-Leu-Leu-aldehyde) | – | – | – | – | sAPP-α levels compared with EGCG (APP cleavage processing; [1]): failed to produce the same increased α-CTF and sAPP-α levels as EGCG; α-CTF levels compared with EGCG (APP cleavage processing; [1]): failed to produce the same increased α-CTF and sAPP-α levels as EGCG
(−)-catechin | – | decreased | significantly opposes | markedly inhibits the ability of EGCG to reduce Aβ production | –
